{"source": "paper PMC2935290", "about": "(Journal of immunology (Baltimore, Md. : 1950), 2010)", "key": {"HLA-DPB1*0201": {"target": "T1, HLA-DPB1*0201 (Homo sapiens, UniProt P04440+P20036, A65V/A84D/A85E/K98E)", "T1 sequence (P04440 30-258 A65V/A84D/A85E/K98E)": "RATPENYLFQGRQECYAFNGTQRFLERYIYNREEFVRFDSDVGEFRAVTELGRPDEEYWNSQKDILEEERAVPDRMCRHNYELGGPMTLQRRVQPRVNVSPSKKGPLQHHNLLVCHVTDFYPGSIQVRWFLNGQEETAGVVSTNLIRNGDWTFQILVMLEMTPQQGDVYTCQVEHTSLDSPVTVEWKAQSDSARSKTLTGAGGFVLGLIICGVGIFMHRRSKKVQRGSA", "T1 sequence (P20036 29-260)": "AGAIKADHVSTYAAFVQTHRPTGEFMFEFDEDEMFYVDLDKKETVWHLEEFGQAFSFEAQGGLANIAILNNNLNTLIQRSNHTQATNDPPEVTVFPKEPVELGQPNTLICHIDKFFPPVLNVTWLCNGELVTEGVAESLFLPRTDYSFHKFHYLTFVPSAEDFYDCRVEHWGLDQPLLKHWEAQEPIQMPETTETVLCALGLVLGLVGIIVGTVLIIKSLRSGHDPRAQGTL", "experiment": "biochemical", "format": "binding"}, "HLA-DPB1*0402": {"target": "T2, HLA-DPB1*0402 (Homo sapiens, UniProt P04440+P20036, A65V/A84D/A85E/L207M)", "T2 sequence (P04440 30-258 A65V/A84D/A85E)": "T1 sequence (P04440 30-258 A65V/A84D/A85E/K98E) with E69K", "T2 sequence (P20036 29-260)": "T1 sequence (P20036 29-260)", "experiment": "biochemical", "format": "binding"}}, "note": "Residue numbers refer to the chain shown, from its start. Where no end group is shown, it is not given here.", "data": [{"molecule": "CSCC[C@H](NC(=O)[C@H](CCCNC(=N)N)NC(=O)[C@H](CCSC)NC(=O)[C@H](CCCCN)NC(=O)[C@H](CO)NC(=O)[C@@H](NC(=O)[C@@H]1CCCN1C(=O)[C@@H](N)CCCCN)C(C)C)C(=O)N[C@@H](C)C(=O)N[C@H](C(=O)N1CCC[C@H]1C(=O)N[C@@H](CC(C)C)C(=O)N[C@@H](CC(C)C)C(=O)N[C@@H](CCSC)C(=O)N[C@@H](CCC(N)=O)C(=O)N[C@@H](C)C(=O)N[C@@H](CC(C)C)C(=O)N1CCC[C@H]1C(=O)O)[C@@H](C)O", "values": [{"measurement": "IC50", "setting": "HLA-DPB1*0201", "value": 161, "unit": "nM"}, {"measurement": "IC50", "setting": "HLA-DPB1*0402", "value": 138, "unit": "nM"}]}, {"molecule": "FFLLTRILTIPQSLD", "values": [{"measurement": "IC50", "setting": "HLA-DPB1*0201", "value": 0.3, "unit": "nM"}, {"measurement": "IC50", "setting": "HLA-DPB1*0402", "value": 1.2, "unit": "nM"}]}, {"molecule": "CC[C@H](C)[C@H](NC(=O)[C@@H](N)CCCCN)C(=O)N[C@@H](Cc1ccccc1)C(=O)NCC(=O)N[C@@H](CO)C(=O)N[C@@H](CC(C)C)C(=O)N[C@@H](C)C(=O)N[C@@H](Cc1ccccc1)C(=O)N[C@@H](CC(C)C)C(=O)N1CCC[C@H]1C(=O)N[C@@H](CCC(=O)O)C(=O)N[C@@H](CO)C(=O)N[C@@H](Cc1ccccc1)C(=O)N[C@@H](CC(=O)O)C(=O)NCC(=O)N[C@@H](CC(=O)O)C(=O)N1CCC[C@H]1C(=O)N[C@@H](C)C(=O)O", "values": [{"measurement": "IC50", "setting": "HLA-DPB1*0201", "value": 9, "unit": "nM"}, {"measurement": "IC50", "setting": "HLA-DPB1*0402", "value": 143, "unit": "nM"}]}]}
